Measured values from patent US9452992B2 (priority 2011, dated 2016).

System: VSV particles pseudotyped with EboV GP on CHO cells overexpressing NPC1
Type: cell-based, Chinese hamster

SMILES	effect of NPC1 overexpression on antiviral activity
COC(=O)c1ccc(COc2ccccc2CN2CCN(C(=O)CNC(=O)CC34CC5CC(CC(C5)C3)C4)CC2)cc1 [compound 3.48, methyl 4-((2-((4-(2-(2-((3r,5r,7r)-adamantan-1-yl)acetamido)acetyl)piperazin-1-yl)methyl)phenoxy)methyl)benzoate]	conferred resistance
O=C(CC12CC3CC(CC(C3)C1)C2)NCC(=O)N1CCN(Cc2ccccc2)CC1 [3.0, 2-((3r,5r,7r)-adamantan-1-yl)-N-(2-(4-benzylpiperazin-1-yl)-2-oxoethyl)acetamide]	conferred resistance
